Here are results for six molecules from ChEMBL document CHEMBL1157334, “Neuroprotective diterpenes from the fruiting body of Antrodia camphorata” (2006).

The nature of assay [1]: Neuroprotective effect against amyloid beta(25 to 35)-induced cell death in Harlan Sprague-Dawley rat pups cortical neurons assessed as cell viability at 1 uM treated 2 hrs before amyloid beta(25 to 35) treatment after 40 hrs by MTT assay. It counts as functional, Cortical neurone. The conditions noted are these: for viability at 1 µM: Rattus norvegicus, Harlan Sprague-Dawley, Cortical neurone, read-out: Activity.

Assay [2] can be described thus: Neuroprotective effect against amyloid beta(25 to 35)-induced cell death in Harlan Sprague-Dawley rat pups cortical neurons assessed as cell viability at 10 uM treated 2 hrs before amyloid beta(25 to 35) treatment after 40 hrs by MTT assay. It counts as functional. Conditions: Cortical neurone, read-out: Activity.
Assay [3] is described as follows: Neuroprotective effect against amyloid beta(25 to 35)-induced cell death in Harlan Sprague-Dawley rat pups cortical neurons assessed as cell viability at 5 uM treated 2 hrs before amyloid beta(25 to 35) treatment after 40 hrs by MTT assay. It counts as functional, Cortical neurone. The conditions noted are these: for viability at 5 µM: Rattus norvegicus, Harlan Sprague-Dawley, Cortical neurone, read-out: Activity.

`C=C1CC[C@@H]2[C@](C)(CO)[C@H](O)CC[C@@]2(C)[C@@H]1/C=C/C1=CCOC1=O`: in assay [1], the viability at 1 µM worked out at 40.7%. Also, the viability at 10 µM in assay [2] worked out at 30.8%. Moreover, in assay [3], the viability at 5 µM worked out at 35.7%.

As to `CC(=O)N[C@@H](CC(=O)O)C(=O)N[C@@H](CCC(=O)O)C(=O)N[C@H](C(=O)N[C@H](C=O)CC(=O)O)C(C)C`, the viability at 1 µM in assay [1] came to 35.8%. In assay [2], the viability at 10 µM came to 24.5%. The viability at 5 µM in assay [3] is 30.2%.

Take `C=C1CC[C@H]2[C@@](C)(CO)CCC[C@]2(C)[C@H]1CCC1=CCOC1=O`: the viability at 1 µM in assay [1] is 41.2%. Further, the viability at 10 µM in assay [2] is 28.9%. Also, the viability at 5 µM in assay [3] is 34.8%.

In the case of `C=C1CC[C@H]2[C@@](C)(CO)CCC[C@]2(C)[C@H]1CCC1CCOC1=O` (some centres not stated), in assay [1], the viability at 1 µM stood at 34.4%. For the same molecule, the viability at 10 µM in assay [2] was determined as 28.1%. In addition, the viability at 5 µM in assay [3] worked out at 25.3%.

For the molecule `C=C1CC[C@@H]2[C@](C)(CC[C@H](O)[C@]2(C)CO)[C@H]1/C=C/C1CCOC1=O` (stereo in doubt; 2), the Activity amounted to 43.8% in assay [1] and 34.9% in assay [3].

Turning to `C=C1CC[C@@H]2[C@](C)(CC[C@H](O)[C@]2(C)CO)[C@H]1/C=C/C1CCOC1=O` (stereo in doubt; 3), in assay [1], the viability at 1 µM amounted to 45.1%. In assay [2], the viability at 10 µM was determined as 36.7%. Further, in assay [3], the viability at 5 µM came to 39.6%.
